The text below walks through data of a melting point compilation (Tetko et al.; mined from patent text by program, amines drawn as free bases though some values may be those of a salt).

`CCOC(=O)Cn1c(C(=O)NCc2nncn2-c2sc(CC)cc2C(=O)c2ccccc2Cl)cc2ccccc21`: the melting point fell in the range of 158 to 160 °C.
For `CCc1c(C(=O)C(N)=O)c2c(OCC(=O)NOCc3ccccc3)cccc2n1Cc1ccccc1` the value was 167 to 169 °C; for `COC(=O)Nc1nc2ccccc2n1-c1nc(N2CCOCC2)nc(N2CCOCC2)n1`, 206 to 209 °C; for `CC(C)(C)c1cc(-c2nnc(C(N)=O)s2)cc(C(C)(C)C)c1O`, 200 to 201 °C.
For the compound `O=C(COc1ccc(Cl)cc1)c1ccc(Br)s1`, the melting point lay within 128 to 130 °C.
The same measure for `O=C(O)c1ccc2[nH]cc(CCCCN3CCCC(Cc4ccccc4)C3)c2c1` (stereo not drawn): 144 to 147 °C; for `CCOC(=O)c1c(C)cc(OC)cc1C(=O)O`: 142 to 143 °C.
In turn, `O=C(Nc1cccc(S(=O)(=O)N2CCCC2)c1)c1cnn2c(C(F)F)cc(-c3ccc(Cl)cc3)nc12` displayed a melting point of 227 °C.
With `c1ccc(-c2ccc3nc(COc4ccc(CCCn5ccnc5)cc4)cn3c2)cc1`, the melting point lay in the range of 106 to 107 °C.
The same measure for `CC(C(=O)c1cccc(OCc2ccccc2)c1)N1CCC(n2c(=O)[nH]c3ccccc32)CC1` (stereo not drawn): 138 to 140 °C; for `COc1cc(COc2nn(C)cc2CC(=O)O)ccc1OCc1nc(-c2ccccc2)oc1C`: 153 to 154 °C; for `O=C(c1ccccc1)C1OC1c1ccccc1` (stereo not drawn): 90 °C.
In turn, `O=C(O)c1ccccc1N1CCN(c2cccc(C(F)(F)F)c2)C1=O` had a melting point of 197 to 198 °C.
For `CCS(=O)(=O)Nc1cc(C)cc(Cc2c[nH]cn2)c1C` the value was 167 to 169 °C; for `c1ccc(Nc2nc(-c3cccs3)nc3ccccc23)cc1`, 137 to 139 °C; for `CC(C#N)=Cc1ccc(C=O)cc1`, 63 to 64 °C.
For `COC(=O)C1=C(C)Nc2c(c(-c3ccccc3)nn2-c2ccccc2)C1c1cccc([N+](=O)[O-])c1` (stereo not drawn) the value was 186 to 189 °C; for `CC1(C)NC(=O)CN1C(=O)CBr`, 137 to 138 °C; for `Cc1ccnc(-c2cc(C)cc(C#N)n2)c1`, 132 °C.
The same measure for `C[C@@H]1CN(CC(=O)Nc2ccccc2Cl)C[C@H](C)N1c1ncnc2c1ncn2C`: 221 to 222 °C; for `CNc1ccc(NC(=O)c2cc3cc(F)ccc3n2Cc2cccc(F)c2)cn1`: 225 to 227 °C.
Turning to `COc1ccccc1C(=O)Nc1ccc(N2CCCC2)cc1C(C)=O`, the melting point lay in the range of 168 to 170 °C.
`CC(C)OC(=O)C(C(=O)NCc1ccccc1)=C1SCS1` had a melting point of 93 to 94 °C.
Consider `CN1C(=O)C2(COc3cc4c(cc32)OCCO4)c2c(C(=O)NC3CCCC3)cccc21` (stereo not drawn), for which the melting point was 135 to 136 °C.
Compound `Oc1cccc(NCc2ccccc2)n1` yielded a melting point of 158 to 162 °C.
The compound `COc1ccc(Nc2ccc(Nc3ccnc4cc(-c5ccc(OC)nc5)sc34)cc2)cc1` had a melting point of 175 to 184 °C.
As to `COc1ccc(CNc2nc(CCCC(=O)O)nc3oc4c(c23)CCCC4)cc1Cl`, the melting point was 205 °C.
Consider `O=C(Nc1ccc(C(=O)N2C[C@@H]3C[C@H](O)CN3c3ccccc32)cc1)c1ccccc1-c1ccccc1`, for which the melting point is 164 to 165 °C.
The compound `CC(=O)Nc1ccc(C(=S)NN)cc1` gave a melting point of 220 to 221 °C.
The same measure for `CCCCNc1nc(C)cc(Cl)n1`: 35 to 36 °C.
Consider `O=c1[nH]c(N2CCNC(CO)C2)cc2c(Br)cccc12` (stereo not drawn), for which the melting point is > 230 °C.
For `O=C(NOCCO)c1ccc(F)c(F)c1Nc1ccc(I)cc1Cl` the value was 173 to 175 °C; for `CCN1C(=O)C(=CC=C2C=C(c3ccccc3)C=C3N2c2ccccc2C3(C)C)SC1=S`, 270 to 272 °C; for `CN(C)C=Nc1nnnc2c1ncn2C1CC(O)C(CO)O1` (stereo not drawn), 173 to 175 °C.
In turn, `COc1cc2c(cc1OC)C1(C3OCCO3)CNCC2O1` (stereo not drawn) gave a melting point of 107 to 109 °C.
For `COC(=O)c1cc(OC)c(OC)cc1OC` the value was 91.5 to 92.5 °C; for `COc1cc2c(cc1OC)C(=O)C(C)C(C)O2` (stereo not drawn), 171 to 172 °C; for `COC(=O)COc1cccc2c(CCSC(c3ccc(O)cc3)c3ccc(O)cc3)c(C)oc12`, 178 to 180 °C.
On to `CCC1OC(=O)N(CCc2ccc(NC(=O)c3sc(C)nc3C)cc2)N=C1c1ccc(OC)c(OC)c1` (stereo not drawn), for which the melting point was determined as 217 °C.
For `O=C(OC(c1ccccc1)c1ccccc1)C1=CCC2CC(=O)C12` (stereo not drawn) the value was 115 to 116 °C; for `CCOC(=O)c1cn(C)c2cnc3cc(F)c(N4CCNC(c5ccc(C)c(C)c5)C4)cc3c2c1=O` (stereo not drawn), 290 °C.
The same measure for `Cc1ccc(-c2cccc3c2OC(COS(=O)(=O)c2ccc(C)cc2)C3)cc1` (stereo not drawn): 145 to 147 °C; for `CSCC[C@@H]1C(=O)N(C)[C@H]([C@H](C)c2cccc3ccccc23)C(=O)N1C`: 88 to 90 °C; for `FC(F)(F)c1ccc(-c2oncc2CCl)cc1`: 99 to 100 °C.
For `Cn1nc(C(F)(F)F)c(CS(=O)(=O)C2=NOC(C)(C)C2)c1OC(F)F`, the melting point was 129 to 130 °C.
The same measure for `CCCCCNC(=O)[C@@H]1CCCN1C(=O)[C@H](C)NC(=O)OCc1ccccc1`: 102 to 104 °C; for `COc1ccc2oc(C(=O)c3cc(F)ccc3F)cc2c1`: 75 to 78 °C; for `O=C1Nc2ccc(Cl)cc2SC1c1ccc(Cl)cc1` (stereo not drawn): 230 to 234 °C.
`CCOC(=O)Nc1nc(-c2ccccc2)c(-c2nc3ccccc3c(=O)n2-c2cccc(OC)c2)s1` gave a melting point of 204 to 205 °C.
For `COC(=O)C(C#N)C(=O)c1snc(Cl)c1Cl` (stereo not drawn) the value was 119 to 122 °C.
The same measure for `CC(=O)NCC1CN(c2ccc(N3CCN(c4nnc(N)s4)C(F)C3)cc2)C(=O)O1` (stereo not drawn): 228 to 230 °C; for `Cc1cc(Br)ccc1S(N)(=O)=O`: 179 to 180 °C.
The same measure for `Cn1cc(C(=O)C(Cl)Cl)c(=O)c(-c2cccc(C(F)(F)F)c2)c1`: 184 to 186 °C; for `CS(=O)(=O)OCC1COC(=O)N1c1ccc(Cl)cc1` (stereo not drawn): 124 to 126 °C.
In turn, `CNC(=O)c1cccc(NC(=O)Cc2cc(OC)c(OC)c(OC)c2)c1` registered a melting point of 81 to 82 °C.
`N#CCC1OC(n2cnc3c(NN4CCC(Sc5ccccc5)CC4)nc(Cl)nc32)C(O)C1O` (stereo not drawn) showed a melting point of 159 to 161 °C.
In turn, `CCCCCCCCCCNC(=O)c1ccc(C(=O)NCCCCCCCCCC)c([N+](=O)[O-])c1` had a melting point of 159 to 160 °C.
For `ClCCOc1ccc2c(c1)oc1cc(Cl)ccc12` the value was 105 to 107 °C.
Consider `CCCCC1(C(F)(F)F)NC(=O)Nc2ccc(F)cc21` (racemic), for which the melting point was 198 °C.
Compound `CS(=O)(=O)c1cccc(Nc2cc(-c3ccccc3O)ncn2)c1` displayed a melting point of 214 to 216 °C.
For `O=C(O)C(CCc1ccccc1)CC1(C(=O)Nc2cccnc2)CCCC1` (stereo not drawn) the value was 80 to 85 °C.
The same measure for `CCc1ccc2c(c1)C=Cc1cc(C)ccc1C2c1cn(-c2ccnc(NCC(=O)Nc3ncc(CC(=O)O)s3)n2)c(=O)[nH]c1=O` (stereo not drawn): 206 to 208 °C.
Take `COc1cccc([C@H]2O[C@H](CC(=O)N[C@@H](C)C(=O)O)C(=O)N(CC(C)(C)CO)c3ccc(Cl)cc32)c1OC`: the melting point lay in the range of 133 to 135 °C.
`COC(=O)c1cccc(C(=O)Cc2cccc(Br)n2)c1` came in with a melting point of 84 to 86 °C.
For `Cc1ccc(C)c(S(=O)(=O)Nc2onc(C)c2Cl)c1` the value was 92 to 93 °C; for `Nc1nc(F)nc2c1ncn2C1OC(COCc2ccccc2)C(OCc2ccccc2)C1OCc1ccccc1` (stereo not drawn), 157 to 159 °C; for `CCn1c(=O)ccc2cnc(Nc3cccc(F)c3OC)nc21`, 92 to 93 °C.
`COc1ccc(OCC2CC(Cn3ccnc3)(c3ccc4ccccc4c3)N(C)O2)cc1` (stereo not drawn): the melting point lay in the range of 143 to 145 °C.
The same measure for `CCOC(=O)c1cc2c(C)c(OCc3ccccc3)ccc2n1C`: 100 to 101 °C; for `Cc1ccc(-c2ccccc2C(=O)Nc2ccc(C(=O)N3CCC(=O)N(CC(=O)N4CCN(C)CC4)c4ccccc43)cc2)cc1`: 161 to 163 °C.
In the case of `CC1=CCC2C(=O)OC(=O)C2C1` (stereo not drawn), the melting point is 58 to 63 °C.
As for `CCCCNc1c(C(=O)OCC)c(C)nc(N)c1[N+](=O)[O-]`, the melting point was in the range of 98 to 99 °C.
On to `CCOC(=O)c1c(C(F)(F)F)nn(-c2c(Cl)cc(Cl)cc2Cl)c1N`, for which the melting point lay within 114 to 116 °C.
`CCOC(=O)c1cnc2c(c(C)nc3cc(C)nn32)c1N1CCCCC1` returned a melting point of 161 to 163 °C.
In turn, `N#Cc1c(N2CCC[C@@H]2CO)[nH]c2cccnc12` came in with a melting point of 207 to 209 °C.
Take `CCn1ncc2cc3c(nc21)CCc1ccccc1C3=O`: the melting point is 88 to 90 °C.
The same measure for `CC=CCC1C(=O)c2cc(OC)c(Cl)cc2C1(C)C` (racemic): 86 °C; for `CCN(CC)C(=O)C(c1ccccc1)n1cnc2[nH]ncc2c1=S` (stereo not drawn): 143 to 146 °C.
As to `CCn1cc(C(=O)O)c(=O)c2cc(F)c(N3CCNC(c4ccc(Cl)s4)C3)cc21` (stereo not drawn), the melting point lay in the range of 232 to 234 °C.
For `CCOC(=O)c1cn2c(cc(OC)c3ccccc32)n1` the value was 175 to 176 °C; for `C=CCOc1c(I)cc(C(=O)CCC(=O)c2cc(OC)c(OC)c(OC)c2)cc1OC`, 113 to 114 °C.
For `CN(C(=O)NCC(=O)O)[C@H]1O[C@H](c2ccccc2Cl)c2cc(Cl)ccc2N(Cc2ccccc2)C1=O` (relative stereo) the value was 153 to 155 °C.
For `N#Cc1c(N)nc2ccccc2c1NCc1cccs1` the value was 208 °C; for `CC(=O)/C=C/Sc1ccc2ccccc2c1`, 62 to 64 °C.
Compound `Cc1cc(Cc2ccc(NS(C)(=O)=O)cc2F)n(C)c1C(=O)c1ccccc1` came in with a melting point of 165 to 167 °C.
For the compound `Cc1nnc(-c2ccc3occ(-c4ccc(N(C)C)cc4)c3c2)o1`, the melting point was 205 to 206 °C.
For `COc1ccc([N+](=O)[O-])c(CC#N)n1` the value was 116 to 117 °C; for `COC(=O)C(Cc1ccccc1)Nc1nnc(N)s1` (stereo not drawn), 186 to 189 °C.
